According to patent US5830851A (Affymax Technologies N.V., priority 1995, dated 1998):
Residues, ends and D or L forms follow the SMILES beside them.

Legend:
[1] = biological target: T1, murine receptor (FDC-P1/ER cells) (Mus musculus, UniProt P14753); experiment: Peptide dependent growth of the EPO-responsive cell line FDC-P1/ER (thymidine incorporation); format: cell-based
T1 construct: expressed in transfected cells; host or cells: FDC-P1 (murine bone marrow derived cell line)
T1 sequence (P14753 25-507): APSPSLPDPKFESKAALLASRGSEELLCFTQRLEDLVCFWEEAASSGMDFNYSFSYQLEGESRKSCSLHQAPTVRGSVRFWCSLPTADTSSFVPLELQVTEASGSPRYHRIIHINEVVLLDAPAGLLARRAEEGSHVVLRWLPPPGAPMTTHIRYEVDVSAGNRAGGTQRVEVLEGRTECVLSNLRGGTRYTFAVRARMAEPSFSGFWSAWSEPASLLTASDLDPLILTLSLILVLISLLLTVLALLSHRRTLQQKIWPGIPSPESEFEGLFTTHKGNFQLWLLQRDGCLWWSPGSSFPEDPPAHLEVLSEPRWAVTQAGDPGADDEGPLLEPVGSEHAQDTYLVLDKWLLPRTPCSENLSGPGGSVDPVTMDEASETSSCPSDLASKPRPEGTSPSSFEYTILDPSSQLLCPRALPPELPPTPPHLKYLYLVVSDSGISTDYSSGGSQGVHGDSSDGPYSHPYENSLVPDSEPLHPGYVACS
Protocol: Sample Preparation: Peptides were resuspended in DMSO as a 1×10^-2 M stock solution and serially diluted in 10-fold increments to generate the following 100× solutions: [formula]
Two μl of each stock dilution was added to a cell well as described below in a total volume of 200 μl to generate final concentrations as follows: [formula]
Cells are counted and resuspended at a concentration of 800,000 cells/ml. Approximately forty thousand cells (50μ) are added to each well of a 96 well microtiter plate. Peptide is added to each well in triplicate. A standard dose response determination is run with each series of peptides. After a forty-two hr incubation (≈2 doubling), each well is pulsed with 1 μCi/well Thymidine. Cells are incubated an additional six hr at which time cells are harvested and counted to assess thymidine incorporation as an indicator of cell proliferation.

FDCP-1/muER cells = experiment: Peptide-induced initiation of cell cycle measured by DNA content; format: cell-based, murine; settings: 10 U/ml EPO, ten hours postinduction
Protocol: 1. Experimental Protocol: FDCP-1/muER cells were grown to stationery phase≈3.0×10^6 cells/ml. […] Three million cells were collected at the following time points: 0, 6, 8, 10, and 12 hr. (see, FIG. 15). Cells were washed twice in cold PBS and fixed by resuspending the cell pellet in 100 μl of cold PBS followed by 900 μl of cold 70% ethanol. Cells were stained with 50 μg/ml of propidium iodine and fluorescence was measured on FACS Scan Flow cytometer. The percentage of cells in each phase was measured using the SOBR model of CellFIT software, by Becton Dickinson.

[2] = system: human peripheral blood mononuclear cells; experiment: Colony assay, human peripheral blood; format: cell-based
Protocol: (§1) A ten milliliter sample of peripheral blood was obtained from a healthy individual in a standard sterile heparin vacutainer tube. Murine bone marrow was obtained from the femurs of approximately 10 mice per experiment. All reagents were obtained from Stem Cell Technologies Inc. (Vancouver, Canada).
(§2) a. Experimental Protocol: Briefly, a nucleated cell count was performed to establish the number and concentration of nucleated cells in the original sample. In the case of peripheral blood, the sample is subjected to centrifugation through a Ficoll-Hypaque (1.077 g per ml) gradient at 400 g for 30 minutes at room temperature. Mononuclear cells at the interface of the Ficoll-Hypaque solution are carefully removed and diluted to a total volume of about 10 ml. The cells obtained from murine bone marrow or human peripheral blood were collected by centrifugation and the supernatant was decanted. The pelleted cells were resuspended in fresh medium and subjected to collection as described above. The washed cells were diluted in Iscove's medium/2% fetal bovine serum to the following concentration for plating:
Cells were added to methyl cellulose per directions of the manufacturer. […] Equivalent cell numbers were plated in "Complete" methylcellulose medium to assess maximal colony formation. A control plate was run with each assay minus EPO and peptide to determine background colony formation. […]

murine bone marrow cells = experiment: Colony assay, murine bone marrow; format: cell-based; settings: EPO
Protocol: as §1, §2
Cells were added to methyl cellulose per directions of the manufacturer. […] Equivalent cell numbers were plated in "Complete" methylcellulose medium to assess maximal colony formation. A control plate was run with each assay minus EPO and peptide to determine background colony formation. Colonies were scored after both 10 days and 18 days of incubation.

[3] = set up 2/10/94, scored 2/23/94, EPO 3U/ml
[4] = set up 2/10/94, scored 2/23/94, EPO (METHOCULT)
[5] = set up 2/10/94, scored 3/4/94, EPO 3U/ml
[6] = set up 2/10/94, scored 3/4/94, EPO (METHOCULT)
[7] = Table 14, 1/28/94 experiment, scored 2/10/94
[8] = Table 14, 1/28/94 experiment, scored 2/21/94
[9] = Table 15, 2/21/94 experiment, scored 3/1/94
[10] = Table 15, 2/21/94 experiment, scored 3/14/94

## CC(C)C[C@@H]1NC(=O)[C@@H]2CCCN2C(=O)CNC(=O)[C@H](Cc2ccccc2)NC(=O)[C@H](Cc2c[nH]cn2)NC(=O)[C@@H](NC(=O)[C@H](CO)NC(=O)[C@@H](N)Cc2ccc(O)cc2)CSSC[C@@H](C(N)=O)NC(=O)[C@H](C(C)C)NC(=O)[C@H](Cc2c[nH]c3ccccc23)NC(=O)[C@H]([C@@H](C)O)NC1=O [RWJ 61477] (HELM PEPTIDE1{Y.S.C.H.F.G.P.L.T.W.V.C.[am]}$PEPTIDE1,PEPTIDE1,3:R3-12:R3$$$V2.0)
[1]
  EC50: 1000 nM

## EPO: Erythropoietin, a glycoprotein hormone with 165 amino acids; recombinant standard
FDCP-1/muER cells
  cells in S phase: approximately 45%
[2]; [3]
  CFU-E: 7
  MBFU-E: 7
[2]; [4]
  CFU-E: 11
  MBFU-E: 25
[2]; [5]
  CFU-E: 4
  CFU-GM: 3
  MBFU-E: 7
  PBFU-E: 7
[2]; [6]
  CFU-E: 1
  CFU-GM: 9
  MBFU-E: 11
  PBFU-E: 13
Murine bone marrow cells; [7]
  BFU-E colony-forming cell numbers: 5
  CFU-E colony-forming cell numbers: 23
  CFU-GM colony-forming cell numbers: 3
Murine bone marrow cells; [8]
  BFU-E colony-forming cell numbers: 30
  CFU-E colony-forming cell numbers: 0
  CFU-GM colony-forming cell numbers: 3
Murine bone marrow cells; [9]
  BFU-E colony-forming cell numbers: 3
  CFU-E colony-forming cell numbers: 3
  CFU-GM colony-forming cell numbers: > 10
Murine bone marrow cells; [10]
  CFU-E colony-forming cell numbers: 0
  CFU-GM colony-forming cell numbers: 26
  MBFU-E colony-forming cell numbers: 0
  PBFU-E colony-forming cell numbers: 10
